Patent US20110201688A1, “N,N'-DI-P-BROMOPHENYL GUANIDINE TREATMENT FOR STROKE AT DELAYED TIMEPOINTS” (UNIVERSITY OF SOUTH FLORIDA, priority 2008, published 2011)

Columns and labels:
cortical neurons [1] = assay: Inhibition of [Ca2+]i increases evoked by chemical ischemia (sodium azide/glucose deprivation) in cortical neurons, Fura-2; format: cell-based, rat; details: for More effective than DTG in depressing Ca2+ dysregulation: ischemia-induced [Ca2+]i, relative to DTG set to 1
Description: Concentration-response relationship for p-Br-DPG inhibition of [Ca^2+]i increases evoked by chemical ischemia (4 mM azide, 0 glucose). […] Dashed line is fit to the data in FIG. 7, shoing p-Br-DPhG inhibition of acidosis-induced Ca^2+ elevations and is included for comparison.
(§1) The effects of sigma receptors on ischemia-induced changes in intracellular calcium concentrations were studied in cultured cortical neurons from embryonic (E18) rats. Dams were euthanatized by decapitation, uterus removed, and embryos dissected out and placed in isotonic buffer containing 137 mM NaCl, 5 mM KCl, 0.2 mM NaH2PO4, 0.2 mM KH2PO4, 5.5 mM glucose, 6 mM sucrose (pH 7.4 with NaOH). Cortex were excised and minced, and tissue digested in isotonic buffer containing 0.25% trypsin/EDTA for 10 min at 37° C. and added to 3× volume of high glucose culture media (Dulbecco's Modified Eagle Media; Invitrogen, Inc., Carlsbad, Calif.), 10% (v/v) fetal calf serum, 100 U/ml penicillin and 0.1 mg/ml streptomycin. Cells were counted on a hemocytometer, plated (0.5×10^6 cells) on 18 mm coverslips coated with poly-1-lysine, and incubated at 37° C. under a 95% air, 5% CO2 atmosphere. After 24 hr the media was replaced with Neurobasal (Invitrogen, Inc., Carlsbad, Calif.) medium supplemented with B27 (Invitrogen, Inc., Carlsbad, Calif.) and 0.5 mM 1-glutamine to limit astrocyte proliferation in the cultures. Cells were used for studies after 14-21 days in culture.
The in vitro NaN3 chemical ischemia disrupts cell metabolism, which ultimately results in plasma membrane dysfunction and intracellular Ca^2+ dysregulation. Fura-2 dye was used to measure changes in intracellular Ca^2+ in the cells. Ischemia was induced in the absence or presence of the drugs to test directly the cell response to sigma receptor activation under ischemic conditions. […] The level of resulting [Ca^2+]i inhibition was compared to DTG, which was set to a relative [Ca^2+]i, level of 1 as indicated by the dashed line. […]

MCAO rats = details: cited from earlier work
cortical neurons [2] = assay: Inhibition of [Ca2+]i increases evoked by acidosis (pH 6.0) in cortical neurons; format: cell-based, rat; details: acidosis pH 6.0, cortical neurons; for Kd: n>50, read-out: Kd (Langmuir-Hill fit) for inhibition of [Ca2+]i increases evoked by acidosis
Description: Concentration-response relationship for p-Br-DPG and DTG inhibition of [Ca^2+]i increases evoked by acidosis (pH 6.0).
as §1
(Ringel F, et al. Lactacidosis-induced glial cell swelling depends on extracellular Ca^2+. Neurosci Lett. 2006 May 8; 398(3):306-9. Epub 2006 Feb. 15). p-Br-DPG was characterized against DTG to determine the ability to inhibit [Ca^2+]i dysregulation in cortical neurons. Cells were administered the indicated amounts of either p-BrDPhG or DTG, followed by cellular [Ca^2+]i dysregulation stimulation by acidosis (pH 6.0). […] A dashed line is superimposed, showing the acidosis results from FIG. 7 for comparison.

Microglia = assay: Microglial migration to ATP in Boyden chamber; format: cell-based; details: 4 hrs at 37° C.
Description: FIG. 10 is a graph showing microglial migration for 4 hrs at 37° C. Control media or 100 μM ATP were used in the absence and presence of DTG or p-Br-DPG (labeled BDTG). Asterisks indicate a significant difference between ATP (p<0.001, n=5) and ATP+BDTG 20 μM (p<0.01, n=5) from DMEM. Significance was determined by one-way ANOVA followed by post-hoc Bonferroni tests.
Microglial migration was assayed using a Boyden chamber fitted with a polycarbonate membrane containing 8 μm pores. Microglia (500,000 cells) were placed in the upper chamber and control media or 100 μM ATP were added in the absence and presence of DTG, or various indicated concentrations of p-Br-DPG to the bottom chamber. Microglia were allowed to migrate for 4 hrs at 37° C., and were subsequently stained with DAPI and counted.

Sprague-Dawley rats = assay: Permanent middle cerebral artery occlusion (MCAO), infarct volume by Fluoro-Jade staining; format: in vivo, rat; details: sacrificed at 96 h
Description: FIG. 9 is a graph showing the data for rats after surgery for permanent middle cerebral arterial occlusion. Rats were treated as indicated at 24, 48, and 72 h and sacrificed at 96 hours. Brain sections were stained with Fluoro-Jade to determine infarct volumes.
11 adult male Sprague-Dawley rats (Harlan, Indianapolis, Ind.) weighing 300 to 350 g were housed in a climate controlled room with water and laboratory chow available ad libidum. Sprague-Dawley rats (300-350 g) were randomly assigned to 1 of 3 groups: MCAO (n=4); MCAO and DTG (n=3); or MCAO and p-Br-DPG (n=4). MCAO surgery was performed as previously reported by Vendrame et al. (Vendrame, et al., Infusion of human umbilical cord blood cells in a rat model of stroke dose-dependently rescues behavioral deficits and reduces infarct volume. Stroke. 2004 October; 35(10):2390-5. Epub 2004 Aug. 19) and originally described by Longa et al. (Longa, et al., Reversible middle cerebral artery occlusion without craniectomy in rats. Stroke. 1989 January; 20(1):84-9). […]
Rats were treated as indicated at 24, 48, and 72 hours after MCAO with vehicle (MCAO), 7.5 mg/kg N,N′-di-p-bromophenyl guanidine (p-Br-DPG) or 7.5 mg/kg 1,3 di-o-tolylguanidine (DTG). […] Stroke-induced damage was quantified using the Fluoro-Jade fluorescence to determine infarct volumes.

[3] = higher p-Br-DPG concentrations or DTG with 100 μM ATP

Kd (cortical neurons [2]) [µM]	Kd (cortical neurons [1]; 4 mM azide, 0 glucose, cortical neurons, n>50, read-out: Kd (Langmuir-Hill fit) for inhibition of [Ca2+]i increases evoked by chemical ischemia) [µM]	Structure (SMILES)	More effective than DTG in depressing Ca2+ dysregulation (cortical neurons [1]) [%]	Reduction of infarct size (MCAO rats; MCAO rats (Ajmo 2006))	Reduction of stroke damage (MCAO rats; administered 24 hours after experimental stroke) [%]	Microglia migration (Microglia; [3])	Infarct volume relative to the MCAO group (Sprague-Dawley rats; 7.5 mg/kg at 24, 48 and 72 h after MCAO, p<0.001)	Efficacy on infarct volume compared with DTG treatment (Sprague-Dawley rats; 7.5 mg/kg each at 24, 48 and 72 h after MCAO)	Effect against [Ca2+]i dysregulation compared with DTG (cortical neurons [2])	Microglia migration (Microglia; 20 μM with 100 μM ATP, compared to DMEM)
		NC(=Nc1ccccc1)Nc1ccccc1 [DPhG]	~25							
109		Cc1ccccc1NC(=N)Nc1ccccc1C [DTG, N,N′-di-o-tolyl guanidine, reference compound]		more than 80%	85	inhibited the migration				
13.5	2.6	N=C(Nc1ccc(Br)cc1)Nc1ccc(Br)cc1 [p-Br-DPG, N,N′-di-p-bromophenyl guanidine]	~25			inhibited the migration	significantly reduced infarct volume	slightly more efficacious than DTG treatment	significantly higher effect against [Ca^2+]i than DTG	significantly increased microglia migration
